According to US20060194828A1, “Vitamin comprising pyroloquinoline quinone and use thereof” (priority 2003, published 2006):
“Also recorded” adds a separate entry of the source.

Key:
AASDH activity (mU26) = assay: PQQ-deficient feedstuff given to mice, levels of amino acids and AAA in blood; format: in vivo, mouse; details: PQQ-deficient vs PQQ-added (100 ng PQQ·2Na per gram) feedstuff, ICR female mice, 20 days
Source text: The mice were fed with feedstuff, to which PQQ had not been added (−PQQ) or had been added (+PQQ) and which had chemically been limited, for 20 days. Thereafter, the peripheral blood was collected therefrom, and amino acids contained in the blood were quantified using an amino acid analyzer. The amount of lysine (A) was indicated with a percentage to the total amount of amino acids in blood. The amount of 2-aminoadipic acid was normalized with lysine (B) or glycine (C). The horizontal line represents the mean value of mice in each group.
In order to clarify the role of PQQ influenced on AASDH activity, feedstuff containing no PQQ was given to mice, and such influence was examined. Chemically defined feedstuff (to which no PQQ was added or 100 ng PQQ·2Na was added per gram of feedstuff) was produced in accordance with the publication (Killgore, J. et al. (1989) Science 245, 850-852; Steinberg, F. M. et al. (1994) J. Nutr. 124, 744-753). The thus produced feedstuff was given to virgin female mice (ICR, 4-week-old) for 20 days. The levels of various amino acids and AAA in blood were measured by the above-described method. […] In particular, when normalization was carried out with the amount of lysine, AAA was reduced most clearly (FIG. 6B).

PQQ-deficient mice = details: skin fragility, skeletal abnormality, decreased immune response, poor reproduction and growth; cited from earlier work

SMILES: O=C(O)c1cc(C(=O)O)c2c(n1)C(=O)C(=O)c1cc(C(=O)O)[nH]c1-2 [PQQ, pyrroloquinoline quinone]
- level of AAA (2-aminoadipic acid) in blood (AASDH activity (mU26); normalized with lysine or glycine): reduced more significantly; also recorded: significantly decreased in PQQ-deficient mice
- amount of lysine in blood (AASDH activity (mU26); percentage to total amino acids in blood): not significantly different; also recorded: not changed
- amount of PQQ added to feedstuff that recovered the abnormalities of PQQ-deficient mice (PQQ-deficient mice): ≥ 800 ng per gram of feedstuff
